Laboratory results published in article PMC9775191, “A Subset Screen of the Compounds Australia Scaffold Library Identifies 7-Acylaminodibenzoxazepinones as Potent and Selective Hits for Anti-Giardia Drug Discovery” (Biomedicines, 2022).

System: G. duodenalis BRIS/91/HEPU/1279
Experiment: Primary Giardia screen at 10 µM (live-cell imaging, automated counting)
Assay type: cell-based, Giardia duodenalis
Procedure: Each compound was assessed in singlicate, at a final concentration of 10 μM (0.4 μL of a 5 mM stock; diluted to a final volume of 200 μL in culture medium; 0.2% DMSO). […] Plates were incubated in sealed chambers filled with 3% O2, 5% CO2 in N2 and growth was assessed at 24 and 48 h using live cell imaging and automated counting as previously described. Growth inhibition was calculated by subtracting media only background counts and determining percentage growth relative to vehicle (0.2% DMSO) controls. The reliability of these assays was assessed by calculating Z’ factors for each plate as previously described.

| Compound | % Inhibition n=1 48h (48 h, first singlicate assay) [%] | other results |
| --- | --- | --- |
| Cc1cc(NS(=O)(=O)c2cc(-c3[nH]ncc3C(=O)N3CCCC3)oc2C)ccc1F [SN00800668] | 0.0 | – |
| CCn1cc(CN2CCCN(C(=O)C(C)n3cncn3)CC2)cn1 (stereo not drawn) [SN00782395] | 0.0 | – |
| c1cncc(-c2nc(Sc3nnnn3CC3CCCO3)c3ccccc3n2)c1 (stereo not drawn) [SN00771230] | 11.8 | – |
| O=C(Nc1ccc(F)cc1)c1nc2nc(-c3cccs3)cc(C(F)(F)F)n2n1 [SN00794266] | 18.7 | – |
| CCc1nc(-c2ccc3c(c2)CCN3C(=O)CCc2ccc(OC)cc2)no1 [SN00790989] | 14.1 | – |
| CC1(C(=O)NC2CCCCC2)Cn2c(cc3ccccc32)C(=O)N1Cc1ccco1 (stereo not drawn) [SN00787436] | 0.0 | – |
| CC1CCN(C(=O)c2n[nH]c(=O)c3ccccc23)CC1 [SN00774511] | 0.0 | – |
| Cc1cc(-c2cc(S(=O)(=O)N(CCN(C)C)Cc3cccs3)c(C)s2)[nH]n1 [SN00798340] | 13.6 | – |
| COc1ccc(CN2CCCN(C(=O)c3cn4ccc(C)cc4n3)CC2)cc1 [SN00771379] | 0.0 | – |
| COc1ccc(CCNC(=O)c2cc(-c3cccs3)on2)cc1OC [SN00784489] | 33.2 | – |
| COCCn1c(C2CCN(S(=O)(=O)c3cccs3)C2)nc2cccnc21 (stereo not drawn) [SN00802004] | 5.3 | – |
| CCn1cc(CN2CCCN(C(=O)c3cc(C4CC4)on3)CC2)cn1 [SN00778709] | 0.0 | – |
| O=C(c1ccc2nncn2c1)N1CCc2[nH]nc(C(F)(F)F)c2C1 [SN00779777] | 3.6 | – |
| Cc1cc2n(n1)CCCN2CC(=O)N1CCN(c2ccc(Cl)cc2)CC1 [SN00791741] | 2.4 | – |
| c1ccc(CCN2CCC(c3c[nH]c4ncccc34)CC2)nc1 [SN00780706] | 11.5 | – |
| O=C(Cn1c(=O)c2nncn2c2ncccc21)N1CCN(c2cccc(Cl)c2)CC1 [SN00799155] | 17.9 | – |
| O=C(NCCc1ccccc1)N1CCCC1c1nc(-c2ccccc2)no1 (stereo not drawn) [SN00797440] | 0.0 | – |
| CCN1CCN(CCCNC(=O)c2cc3occc3c(Nc3ccc(OC)cc3)n2)CC1 [SN00790822] | 14.5 | – |
| Cc1ccc(NS(=O)(=O)c2ccc(-c3nnc(C)o3)s2)cc1 [SN00789919] | 5.1 | – |
| O=C(c1ccccc1)N1CCN(C(=O)c2ccc3noc(-c4ccccc4)c3c2)CC1 [SN00777400] | 15.8 | – |
| O=C(Cn1c2ncccc2c(=O)n1-c1ccccc1)NC1CCCC1 [SN00791196] | 18.2 | – |
| O=c1c2c(ncn2Cc2ccc(F)cc2)n(-c2ccccc2)c(=O)n1C1CCCC1 [SN00802718] | 6.1 | – |
| O=C(NC1CCN(c2cc(-c3cccs3)n[nH]2)C1)c1ccc2[nH]cnc2c1 (stereo not drawn) [SN00800411] | 29.6 | – |
| CCCCn1c(=O)[nH]c2cc(-c3nc(-c4ccc(F)cc4)no3)ccc2c1=O [SN00789403] | 0.3 | – |
| CC1(C(=O)N2CCCC(CN3CCOCC3)C2)CC1(Cl)Cl (stereo not drawn) [SN00782980] | 14.3 | – |
| CC(C)(C)NC(=O)c1cc(-c2cccnc2)[nH]n1 [SN00799308] | 15.5 | – |
| CC(C)c1noc(-c2cc(=O)n(CC(=O)N3CCCC3)c3ccccc23)n1 [SN00798718] | 0.0 | – |

| Compound | % Inhibition n=1 48h (48 h, first singlicate assay) [%] | other results |
| --- | --- | --- |
| Cc1noc(C)c1CCNC(=O)C1CCN(c2nc3cccnc3n(C)c2=O)CC1 [SN00790058] | 15.0 | – |
| CCCNC(=O)N1Cc2c(sc3c2CCCC3)-n2cccc2C1CC (stereo not drawn) [SN00791532] | 15.0 | – |
| CCC(C)NC(=O)c1cc2c(=O)n(Cc3ccccc3)ccc2s1 (stereo not drawn) [SN00797832] | 11.3 | – |
| Cn1ccc2c(cc(C(=O)N3CCC(N4CCCCC4)CC3)n2C)c1=O [SN00797819] | 18.7 | – |
| O=S(=O)(c1cccc2cccnc12)N1CCc2nc(-c3ccc(F)cc3)ncc2C1 [SN00799070] | 3.1 | – |
| Cc1sc(C(=O)N2CCCC2)c2ncnc(NCc3ccc(F)c(Cl)c3)c12 [SN00803192] | 23.9 | – |
| O=C(Cc1cccs1)Nc1ccc(N2CCN(c3ccccc3F)CC2)cc1C(=O)O [SN00790111] | 0.0 | – |
| Cc1sc(-n2cccc2)c(C(=O)NC2CCCCCC2)c1C [SN00776382] | 0.0 | – |
| O=C(Nc1cccc(-c2noc(C3CCOCC3)n2)c1)C1CC1 [SN00772921] | 0.0 | – |
| CCc1nccn1CC1CCCN1 (stereo not drawn) [SN00772783] | 0.0 | – |
| COc1ccccc1OCCNC(=O)Cn1ccc2c(c(C)nn2-c2ccccc2)c1=O [SN00797916] | 27.1 | – |
| Cc1nnc(NC(=O)c2ccc3c(=O)n4c(nc3c2)CCCCCC4)s1 [SN00777547] | 37.7 | – |
| COc1ccc(-c2cnc(C)o2)cc1S(=O)(=O)Nc1ccc(C)cc1 [SN00792030] | 22.0 | – |
| CCC1CCCCN1C(=O)Cn1c(C(=O)OC)cc2occc21 (stereo not drawn) [SN00785479] | 8.8 | – |
| Cc1nc(-c2ccc(C(=O)N3CCCC3C(=O)Nc3ccc(C)c(Cl)c3)cc2)no1 (stereo not drawn) [SN00793320] | 16.2 | – |
| C=CCn1c(C)c(CC(=O)Nc2cc(F)ccc2C)c(=O)n2nc(-c3ccccc3)nc12 [SN00786890] | 40.6 | – |
| Cc1cc(C(=O)N2CCC(Oc3ccccc3)CC2)[nH]n1 [SN00775052] | 4.5 | – |
| c1ccc2sc(N3CCCC3c3nnc4n3CCCCC4)nc2c1 (stereo not drawn) [SN00771886] | 12.0 | – |
| CSc1ccc(NC(=O)N2C[C@@H]3C[C@H]2C[C@@H]3NC(=O)c2cccs2)cc1 (relative stereo) [SN00800991] | 17.8 | – |
| COc1ccc(C2NC(C(=O)O)Cc3c2[nH]c2ccccc32)c(OC)c1 (stereo not drawn) [SN00783957] | 5.0 | – |
| Cc1ccc(C)c(S(=O)(=O)Nc2ccc3nnc(-c4ccccc4)n3n2)c1 [SN00795461] | 0.0 | – |
| CCN(CC)S(=O)(=O)c1ccc(Nc2ccn(CCc3ccccn3)n2)c([N+](=O)[O-])c1 [SN00777378] | 39.2 | Average % Inhibition 24h (24 h): 10.7%; % Inhibition n=1 24h (24 h, first singlicate assay): 21.3%; % Inhibition n=2 24h (24 h, re-assessment): 0.0%; Average % Inhibition 48h (48 h): 25.2%; % Inhibition n=2 48h (48 h, re-assessment): 11.3% |
| CCOc1ccc(NS(=O)(=O)c2cc(C(=O)Nc3cc(C)ccc3C)[nH]n2)cc1 [SN00784397] | 15.3 | – |
| O=C(Nc1nnc(S(=O)(=O)N2CCc3ccccc32)s1)c1ccccc1 [SN00787260] | 37.8 | – |
| CC(=O)Nc1ccc(C(=O)OCc2cc(-c3cccs3)on2)s1 [SN00777515] | 14.0 | – |
| COc1ccc(NC(=O)C2CCn3c(nc4ccccc43)C2)cc1Cl (stereo not drawn) [SN00789545] | 0.0 | – |
| Cc1ccc(CNC(=O)N2CCN(C3=CC4=NCC(C)N4C=N3)CC2)cc1 (stereo not drawn) [SN00800883] | 11.9 | – |

| Compound | % Inhibition n=1 48h (48 h, first singlicate assay) [%] | other results |
| --- | --- | --- |
| O=C(C1CCC1)N1CCCc2cc(S(=O)(=O)Nc3ccccc3)ccc21 [SN00793348] | 0.0 | – |
| Cc1ccc(NS(=O)(=O)c2cn(C)c(C)n2)c(Br)c1 [SN00792660] | 25.8 | – |
| CC(=O)N1CCCN(C(=O)c2cnn(C(C)(C)C)c2C)CC1 [SN00778131] | 0.0 | – |
| Cc1cccc(NC(=O)Nc2cc(F)c3[nH]c(=O)ccc3c2)c1C [SN00795412] | 0.0 | – |
| Cc1ncc2c(n1)CN(C(C)c1nnc(-c3ccccc3)o1)CC2 (stereo not drawn) [SN00807918] | 13.7 | – |
| CCOc1ccc(-n2c(=O)c3sc4ncccc4c3n(CC(=O)NC3CCCCC3)c2=O)cc1 [SN00790499] | 13.5 | – |
| CCOc1ccc(-c2nc(CSCC(=O)N3CCN(c4ccc(Cl)cc4)CC3)c(C)o2)cc1 [SN00794684] | 0.0 | – |
| COc1ccc(OC)c(CNC(=O)c2ccc3[nH]c4c(c3c2)CN(C(C)=O)CC4)c1 [SN00798195] | 0.0 | – |
| Cc1cn2c(S(=O)(=O)N3CCN(c4ccc(F)cc4)CC3)c(C(C)C)nc2s1 [SN00799325] | 19.4 | – |
| CCc1ccc(NC(=O)N2CCc3c(c(-c4nc(C)no4)nn3C)C2)cc1 [SN00796748] | 19.4 | – |
| Cc1ccccc1Nc1nc(N)nc(CN2C(=O)NC(C)(c3cccc4ccccc34)C2=O)n1 (stereo not drawn) [SN00773551] | 21.3 | – |
| Cc1cc(=O)n2nc(N(C)CC(=O)NC3CCCc4ccccc43)sc2n1 (stereo not drawn) [SN00785631] | 35.0 | – |
| CSCCC1COC(c2cccn2C)=N1 (stereo not drawn) [SN00784837] | 0.0 | – |
| CN1CCCc2cc(C(=O)NCc3cccs3)sc21 [SN00799810] | 0.0 | – |
| Cc1ccc(-c2nc(-c3cccnc3)sc2CC(=O)Nc2ccc3nc(C)sc3c2)cc1 [SN00774529] | 0.0 | – |
| COCCNC(=O)c1nc[nH]c1C(=O)NC(C)C [SN00786292] | 8.3 | – |
| COCCOCC(C)NC(=O)Cc1csc(N2CCCNC2=O)n1 (stereo not drawn) [SN00781237] | 11.2 | – |
| COc1ccc(C)cc1NC(=O)Nc1c(-c2ccncc2)[nH]c2c(Cl)cccc12 [SN00795853] | 0.0 | – |
| CCn1c(Cn2cccn2)nc2cc(NC(C)=O)ccc21 [SN00786137] | 11.6 | – |
| Cc1ccc(-c2nc3ccccc3n2Cc2cccc(F)c2)o1 [SN00788939] | 16.3 | – |
| COCCN1C(=O)c2oc3ccccc3c2OCC1(C)C(=O)NCc1ccccc1OC (stereo not drawn) [SN00791365] | 21.5 | – |
| Cc1ccccc1-n1nc(C(=O)N(C)Cc2ccco2)nc1CCc1ccccc1 [SN00802642] | 5.4 | – |
| CCOC(=O)c1c(NC(=O)CN2C(=O)COc3ccc(Cl)cc32)sc2c1CCCC2 [SN00783847] | 26.0 | – |
| CCCNc1ncnc2c1cnn2-c1ccc(C)cc1 [SN00794411] | 0.0 | – |
| Cc1ccc(-c2cc(C(=O)N3CC(C)CC(C)C3)c3ccccc3n2)o1 (stereo not drawn) [SN00783691] | 7.2 | – |
